For orientation: melting point means the temperature of the solid-liquid transition. By viability is commonly meant a read-out of living cells in per cent, often relative to untreated cells.

SMILES strings stand for the structures.

The test system of data set [1] is estrogen-dependent MCF-7 breast cancer cell line. The data set is described as follows: Estrogenic activity: MCF-7 proliferation, crystal violet assay. It counts as cell-based, human. Particulars: 5 μM, 120 h, estrogen- and phenol red-free medium. The procedure: To determine estrogenic activity of tested compounds their influence on estrogen-dependent MCF-7 breast cancer cell line proliferation was investigated. Cells were seeded into 24-wells plates in density of 40,000 per well. After 24 h incubation, cells were washed twice with PBS and fresh, estrogen- and phenol red-free medium (DMEM low-glucose; 2,5% Charcoal Stripped FBS; 2 mM glutamine; Sigma Aldrich, Darmstadt, Germany) was added. […] After 120 h incubations, cells proliferation was determined with crystal violet assay. Briefly, cells were washed with PBS and fixed with 3,7% formaldehyde. Then, crystal violet solution was added for 10 minutes. After incubation, solution was removed and cells were washed five times with PBS. Crystal violate was extracted from cells using destaining solution (1,33% citric acid, 1,09% sodium citrate in water/methanol (1:1) solution) and absorbance of the solution was determined at 570 nm (A570). Proliferation rate was determined by dividing the A570 of experimental wells by the A570 of control wells × 100%.

A short description of data set [2]: In vitro stability in mouse liver microsomes. It counts as in vitro ADME. The procedure: Mouse liver microsomes (MLMs) were used to investigate the phase I metabolism of selected compounds (2c, 2d, 3b, 4g, 5a) and the reference substance BP-2. Samples composed of test compound (20 µM), MLMs (0.8 mg/mL) and potassium phosphate buffer (100 mM, pH 7.4) were preincubated prior to addition of NADPH-regenerating system. NADPH-regenerating system contained NADP, glucose-6-phosphate, glucose-6-phosphate dehydrogenase and potassium phosphate buffer (100 mM, pH 7.4). Control incubations were performed in the absence of the NADPH-regenerating system and in case of esters (2c, 2d, 3b and 4g) without the mouse liver microsomes solution to determine spontaneous hydrolysis. Incubations were conducted at 37 °C for at least 15 min up to 60 min. The reactions were stopped by the addition of 250 μL ice-cold methanol containing internal standard PTX (20 μM). The mixture was then centrifuged. Supernatant analysis was performed using UPLC/MS (Waters Corporation). The assays were repeated two times. The in vitro half times (t1/2) for test compounds were determined from the slope of the linear regression of ln % parent compound remaining versus incubation time. The calculated t1/2 was incorporated into the following equation to obtain intrinsic clearance: (Clint) = (volume of incubation [µL]/ protein in the incubation [mg]) × 0.693 / t1/2 [74].
(Microsomes from liver hold many membrane-bound enzymes, among them those of drug oxidation.)

Data set [3] is described as follows: Solubility in cosmetic solvents / macrogol formulations. It counts as physicochemical. The settings on record: typical cosmetic solvents / formulations used. The source says: The composition of formulations and concentration of tested compounds were based on their limited solubility. N-monosubstituted compounds 2a–2e were insoluble at desirable concentrations in the typical solvents used in cosmetic formulations such as alcohols, triacetin, surfactants, and co-surfactants. To dissolve compounds 2a and 2b before incorporation to the formulation DMSO: Tween 20 (1:9 w/w) was used, for less soluble 2c–2e it was necessary to use DMSO alone as solvent. […] Thus the detailed composition of the formulations is as follows: F1–Tween 20 43.2%, PEG-400 25%, PEG-1500 25%, Triacetin 4.8%, tested compound 2%; F2–Tween 20 43.2%, PEG-400 25%, PEG-1500 25%, DMSO 4.8%, tested compound 2%; F3–PEG-400 25%, PEG-1500 25%, DMSO 48%, tested compound 2%. Considering the disadvantages of currently reported macrogol formulations and the low concentration achieved for the tested compounds (2%), we plan to work on cosmetic emulsions containing the most promising derivatives at higher concentrations as well as required excipients including preservatives, antioxidants, etc. This research will be carried out in the near future.

The nature of data set [4]: In vitro photoprotection study of 2% (w/w) macrogol formulations on PMMA plates. In short, it runs like this:
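Compounds at 2% in macrogol (PEG-400/PEG-1500) formulations, predissolved in triacetin:Tween 20 (1:9) or DMSO; 32.5 mg applied to 25 cm² PMMA plates (5 µm roughness), glycerin-treated plate as reference. Per EN ISO 24443:2012, modified: reflectance absorbance 290–400 nm in 1 nm steps, averaged over 12 scans.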

Data set [5] is described as follows: Photostability in macrogol formulations on PMMA plates (solar light simulator). It counts as physicochemical. In short, it runs like this: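 Macrogol formulations (2% w/w) applied at 1.3 mg/cm² on PMMA plates were irradiated 1 h at 500 W/m² (218 kJ/m² UV) in a solar simulator with <290 nm cut-off and IR block. SPFin vitro, UVA PF and AUC were compared before and after exposure, with methanol washes analysed by UPLC-MS/MS, in duplicate.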

Data set [6] in a line: Ultraviolet spectroscopy in methanol solutions. It counts as physicochemical. Particulars: for Absorption Range: scan range 290–400 nm. In short, it runs like this: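 Spectra recorded from 290–400 nm in methanol (50 or 25 μM) in 1 cm quartz cuvettes. εmax taken as the slope of absorbance vs. concentration over 10–50 μM or 2.5–30 μM.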
The nature of data set [7]: Photostability in methanol solutions (solar light simulator). It counts as physicochemical. Further details: λmax pre-irradiation: unit not given beside the values. Particulars: methanol solution; for % of initial AUC post-irradiation / λmax post-irradiation: 1h irradiation at 500 W/m2. In short, it runs like this: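 Compounds at 25 or 50 µM in methanol, in stoppered quartz cuvettes, were irradiated 1 h at 500 W/m^2 (UV dose 218 kJ/m^2). A solar simulator filtered below 290 nm with an IR block was used. UV absorption spectra before and after irradiation were compared, with UPLC-MS/MS analysis, in duplicate.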

The nature of data set [8]: MTT cytotoxicity, skin panel model (melanocytes). It counts as cell-based. Particulars: Primary Epidermal Melanocytes (PCS-200-013, ATCC), human primary dermal melanocytes, highest tested concentration (50 µM), read-out: cell viability (% of control).
Description: Primary Epidermal Melanocytes were cultured in Dermal Cell Basal Medium (ATCC) supplemented with Adult Melanocyte Growth Kit Components (ATCC), HaCaT and BJ cells were cultured in Dulbecco’s modified Eagle’s medium (DMEM; New York, NY, USA) and supplemented with 10% fetal bovine serum (FBS; Gibco, New York, NY, USA). Cell maintenance was performed in a humidified incubator at 37 °C with 5% CO2. Cells were passage when the culture has reached approximately 80 to 90% confluence. Cells were seeded at density of 6 × 10^3 on 96-well plates. Following overnight culture, the cells were then treated with increasing doses of compounds and incubated for 24 h. Following cell exposure to each drug for 24 h, 10 µL MTT reagent (Sigma Aldrich, Darmstadt, Germany) was added to each well. After 4 hours incubation (37 °C, 5% CO2), the medium was aspirated and the formazan produced in the cells appeared as dark crystals in the bottom of the wells. Next, DMSO (dissolving solution) was added to each wells. Then the optical density (OD) of solution was determined at 570 nm on micro plate reader (Spectra iD3 Max, Molecular Devices; San Jose, CA, USA). Viability (% of control) was determined by dividing A570 of experimental wells by of A570 of control wells × 100%.
Data set [9] in a line: Neurocytotoxicity, MTT assay. It counts as cell-based. The settings on record: human, SH-SY5Y neuroblastoma cells, highest concentration (50 µM), read-out: cell viability (% of control). The procedure: For […] assays a human neuroblastoma cell line—SH-SY5Y (CRL-2266™, ATCC) and a human hepatocellular carcinoma cell line–HepG2, respectively have been used. Cells were seeded on 96-well plates at an initial density of 10,000 cells per well. Cells were cultured in standard conditions for 24 h and then study compounds were administrated at different concentrations (10–50 μM) for another 24 h. After incubation time cells viability was measured with MTT assay. For this purpose culture medium has been replaced for the fresh one and MTT reagent (3-(4,5-dimethylthiazol-2-yl)-2,5-diphenyltetrazolium bromide) has been added at the concentration 0.5 mg/mL. Cells were incubated with MTT reagent at 37 °C for 4 h. Then formazan crystals have been dissolved in DMSO solution and the absorbance has been measured at 570 nm. Experiments were conducted in triplicates. Values represent mean percent of viability (in the percent of control).
(In general: Tetrazolium dyes change colour on reduction, which living cells bring about.)

Where [10] appears, read: 2% (w/w) macrogol formulation F2 (DMSO 4.8%).
Where [11] appears, read: after 1 h irradiation at 500 W/m^2, formulation F2 (DMSO 4.8%).
The mark [12] stands for this setting: after 1 h irradiation at 500 W/m^2, formulation F3 (DMSO 48%).
The mark [13] stands for this setting: 2% (w/w) macrogol formulation F1 (Triacetin 4.8%).
[14] abbreviates: after 1 h irradiation at 500 W/m^2, formulation F1.

Turning to `O=C(c1ccc(O)cc1O)c1ccc(O)cc1O` [BP-2, benzophenone-2, reference compound], the “stimulation of MCF-7 proliferation” value in data set [1] is given as “over 60%”. In addition, in data set [2] (mouse liver microsomes 0.8 mg/mL, 20 µM compound, NADPH-regenerating system, 37 °C), the “t ½” value is 1.1 h. Further, the Clint in data set [2] (mouse liver microsomes, calculated from t1/2) is 13 µL/min/mg.

Turning to `CCOC(=O)CN1C(=O)N/C(=C\c2ccccc2)C1=O` [Compound 2a, Ethyl (Z)-2-(4-benzylidene-2,5-dioxoimidazolidin-1-yl)acetate], the melting point lay within 169 to 171 °C. In data set [3], the “solubility (in words)” value is “only slightly soluble”. In addition, in [4] (setting [10]), the SPFin vitro is 4.79 ± 0.02, the “UVA PF” value turned out to be 2.40 ± 0.01, the “UVA/UVB Ratio” value is 0.35 ± 0.00 and the λc (critical wavelength) was 339 nm. In [5] (DMSO in formulation reduced from 48 to 4.8%), the “improvement of the functional photostability” value was 31.1%. Besides, in data set [5] (setting [11]), the “% of Initial AUC” value was 62.42%, the “% of Initial SPFin vitro” value is 55.49% and the “% of Initial UVA PF” value was 68.96%. In data set [5] (setting [12]), the “% of Initial AUC” value is reported as 46.72%, the “% of Initial SPFin vitro” value was 33.25% and the “% of Initial UVA PF” value was 37.87%. Further, the “percentage of photoisomer formation” value in [5] (two formulations differing in the content of DMSO (48 and 4.8%), which value belongs to which is not given) is recorded as 48%. Also, in data set [6], the εmax is 28460 M⁻¹ cm⁻¹, the λmax was 316 nm and the “Absorption Range” value is reported as 290–345 nm. Also, in [7], the “decrease of AUC after irradiation” value was around 30%, the “shift of λmax after irradiation” value was 1 nm, the λmax pre-irradiation is 316 and the “% of initial AUC post-irradiation” value is 70.45%. The compound further registered a λmax post-irradiation in data set [7] of 317.

For the compound `Cc1ccc(/C=C2/C(=O)C3(C)CCC2C3(C)C)cc1` (stereo not shown) [Compound 4-MBC, 4-methylbenzylidene camphor, reference compound], in data set [8], the viability at 24 h, 50 µM is below 36%. In data set [4] (setting [13]), the “UVA PF” value came to 1.08 ± 0.1, the “UVA/UVB Ratio” value is 0.00 ± 0.00 and the λc (critical wavelength) was determined as 316 nm. This compound displayed an SPFin vitro in data set [4] (2% (w/w) macrogol formulation F1 (Tween 20, PEG-400, PEG-1500, Triacetin 4.8%)) of 5.59 ± 0.27. In data set [5] (setting [14]), the “% of Initial AUC” value is 90.89%, the “% of Initial SPFin vitro” value was 91.05% and the “% of Initial UVA PF” value is 101.39%. For the same compound, the viability at 24 h, 50 µM in data set [9] was below 31%. For the same compound, in [6], the εmax worked out at 25550 M⁻¹ cm⁻¹, the λmax came out at 299 nm and the “Absorption Range” value is reported as 290–332 nm. Moreover, in [7], the λmax pre-irradiation is given as 299, the “% of initial AUC post-irradiation” value is 87.76% and the λmax post-irradiation is given as 303.

The values are drawn from article PMC6630718, “Discovery of Novel UV-Filters with Favorable Safety Profiles in the 5-Arylideneimidazolidine-2,4-dione Derivatives Group” (Molecules, 2019).
